Data set [1] has as its system human iPS cells (1231A3 strain). The data set is described as follows: Timing of JNK inhibitor addition in pituitary organoid differentiation, bright field observation (Example 2). The class given is cell-based. To be noted: observed day 28. The procedure: In Example 2, according to step shown in FIG. 2A, a cell population including cells that constitute pituitary tissue was produced. Specifically, human iPS cells (1231A3 strain, obtained from RIKEN) were cultured under feeder-free conditions according to the method described in Scientific Reports, 4, 3594 (2014). As the feeder-free medium, StemFit medium was used and, as the feeder-free scaffold, Laminin 511-E8 was used.
Differentiation induction was performed under the same conditions as in Example 1 except for the condition of adding a JNK inhibitor, compared to the conditions of Example 1. As the condition for adding JNK inhibitor, conditions including addition of JNK—IN-8 (manufactured by Merck, 1 μM), which is a c-Jun N-terminal kinase (JNK) inhibitor, on days 0, 2, 6, 10, and 13 after the start of differentiation induction were compared with conditions without addition of JNK inhibitor. When the JNK inhibitor is added on days 2, 6, 10, and 13 after the start of differentiation induction, 2 μM was added to the medium when adding or replacing the medium, so that the final concentration in the well would be 1 μM.
On day 28 after the start of suspension culture, bright field observation by polarized illumination was performed using an inverted microscope (manufactured by KEYENCE CORPORATION, BIOREVO BZ-X800) (FIG. 2B).

The test system of data set [2] is cell mass derived from human iPS cell line 201B7. The data set is described as follows: ACTH concentration in culture medium of cell masses by ELISA (Example 4). In kind it is cell-based. As to conditions: for ACTH concentration in the medium compared with JNK inhibitor non-addition conditions: 1 μM from day 0; for ACTH concentration in the medium vs non-addition condition: 3 μM. The protocol:
In Example 4, according to step shown in FIG. 4A, a cell population including cells that constitute pituitary tissue was produced. Specifically, the culture supernatant of a cell mass derived from human iPS cell line 201B7 prepared by the method described in Example 3 was collected over time, and the amount of ACTH secreted per cell mass was measured. As a specific measurement method, cell masses containing pituitary tissue were prepared under four conditions: from day 0 to day 30 of differentiation induction, conditions in which the JNK inhibitor JNK—IN-8 was added at 1 μM, 3 μM, or 10 μM, and no addition control. […] Thereafter, the cell masses prepared by adding 1 μM or 3 μM of JNK—IN-8 and the non-addition control were suspension cultured in a 10 cm dish with 20 ml of medium, and half of the medium was replaced every 3 to 4 days. The culture supernatant was collected before replacement of a half-volume of the medium on days 61, 103, 152, and 201 of differentiation induction, and frozen at −150° C. When all samples were collected, the ACTH concentration in the recovered medium was measured by the ELISA method used in clinical testing (testing outsourced to SRL, Ltd.). Based on the obtained ACTH concentration data (pg/mL), the total number of cell masses at the time of sampling and the total amount of culture medium were corrected to the ACTH concentration under the conditions where 20 cell masses were cultured in 20 ml of medium, and shown in a graph. A similar experiment was performed twice.
As a result, the ACTH concentration in the medium was about 5 times as high on day 61 of differentiation induction, about 2 times as high on days 103 and 152 of differentiation induction, and about 1.3 times as high on day 201 of differentiation induction under the conditions in which 1 μM JNK—IN-8 was added from day 0 of differentiation induction, compared with the JNK inhibitor non-addition conditions. Under the conditions in which 3 μM JNK—IN-8 was added, the ACTH concentration in the medium was higher on days 61 and 103 of differentiation induction than that in the non-addition condition, but lower on days 152 and 201 of differentiation induction than that in the non-addition condition. From the above results, it was shown that the addition of a JNK inhibitor improves the ACTH secretory capacity per cell mass in differentiation induction of pituitary tissue from pluripotent stem cells, and that the concentration of the JNK inhibitor to be added is preferably not more than 3 μM (FIG. 4B).
On the technique in general: ELISA stands for enzyme-linked immunosorbent assay.

Turning to `Cc1cc(NC(=O)c2cccc(NC(=O)/C=C/CN(C)C)c2)ccc1Nc1nccc(-c2cccnc2)n1` [JNK—IN-8, (E)-3-(4-(dimethylamino)but-2-enamido)-N-(3-methyl-4-((4-(pyridin-3-yl)pyrimidin-2-yl)amino)phenyl)benzamide], the “formation of nonneural epithelium/pituitary vs no addition” value is listed as “formed more efficiently” in data set [1] (JNK—IN-8 1 μM added on days 0, 2, and 6 after start of differentiation induction); “no difference” in data set [1] (JNK—IN-8 1 μM added on days 10 and 13 after start of differentiation). For the same molecule, the “ACTH concentration in the medium compared with JNK inhibitor non-addition conditions” value in data set [2] (day 61 of differentiation induction) is recorded as “about 5 times”; in data set [2] (day 201 of differentiation induction), “about 1.3 times”; in data set [2] (days 103 and 152 of differentiation induction) it was “about 2 times”. In addition, the “ACTH concentration in the medium vs non-addition condition” value was “higher” in data set [2] (days 61 and 103 of differentiation induction); “lower” in data set [2] (days 152 and 201 of differentiation induction). Besides, in data set [2] (10 μM added from day 0 to day 30 of differentiation induction), the “state of cell mass” value is recorded as “collapse of cell mass”.

Values taken from US20240392241A1, “METHOD FOR PRODUCING CELL MASS INCLUDING PITUITARY TISSUE AND CELL MASS” (SUMITOMO CHEMICAL COMPANY, LIMITED, priority 2021, published 2024).
